Measurements taken from patent publication US20260022142A1, “MACROCYCLIC IMMUNOMODULATORS” (Bristol-Myers Squibb Company, priority 2022, published 2026).
Bridge positions count the residues as written; N and C are the ends. Square brackets hold non-standard residues; d marks the D form. Peptide text beside a SMILES is read from it. * marks the point of attachment. Bip = N[C@@H](Cc1ccc(-c2ccccc2)cc1)C(=O)O; Phe(4-NH2) = Nc1ccc(C[C@H](N)C(=O)O)cc1; NH(CH2)14COOH = O=C(O)CCCCCCCCCCCCCCN*; Phe(3-Me) = Cc1cccc(C[C@H](N)C(=O)O)c1; NH(CH2)12COOH = O=C(O)CCCCCCCCCCCCN*; Val(3-OH) = CC(C)(O)[C@H](N)C(=O)O; 4Pal = N[C@@H](Cc1ccncc1)C(=O)O; Cha = N[C@@H](CC1CCCCC1)C(=O)O; Cit = NC(=O)NCCC[C@H](N)C(=O)O; dNle = CCCC[C@@H](N)C(=O)O; Carboxymethyl = O=C(O)C*; Orn = NCCC[C@H](N)C(=O)O; Pra = C#CC[C@H](N)C(=O)O; Aun = NCCCCCCCCCCC(=O)O; Dab = NCC[C@H](N)C(=O)O; Dap = NC[C@H](N)C(=O)O; AEEA = NCCOCCOCC(=O)O

The compounds below were run against T1, PD-1/PD-L1 interaction (PE-labeled human PD-L1-Ig binding to Jurkat cell line over-expressing human PD-1) (Homo sapiens, UniProt Q15116) (assay: Jurkat-PD-1 Cell Binding High-Content Screening Assay (CBA)). Details: Jurkat cell line over-expressing human PD-1; PE-labeled PD-L1-Ig 20 nM final; read-out: Jurkat hPD1-PDL1 IC50.
T1 construct: expressed in transfected cells; host or cells: Jurkat
Assay type: cell-based
In short: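 Jurkat-hPD-1 cells, DMEM/10% FCS; cpd 2 h 37° C; PE-PD-L1-Ig 20 nM final, 1 h; 4% PFA fix + Hoechst 33342, 3× dPBS wash; high-content imaging read-out.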

T1 sequence (Q15116 25-288): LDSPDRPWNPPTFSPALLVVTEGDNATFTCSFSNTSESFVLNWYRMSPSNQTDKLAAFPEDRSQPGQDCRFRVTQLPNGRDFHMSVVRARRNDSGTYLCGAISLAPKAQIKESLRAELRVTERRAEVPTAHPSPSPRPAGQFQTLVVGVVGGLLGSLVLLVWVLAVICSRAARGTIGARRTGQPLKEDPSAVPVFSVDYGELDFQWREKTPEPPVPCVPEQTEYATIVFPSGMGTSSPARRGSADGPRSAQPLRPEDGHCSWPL

IC50 [nM]	SMILES
20.6	Cc1cccc(C[C@@H]2NC(=O)[C@H](CC(=O)O)NC(=O)[C@H](Cc3ccc(OCC(=O)O)cc3)NC(=O)[C@H](CCCNC(=N)N)NC(=O)CSC[C@@H](C(=O)N[C@@H](CCN)C(=O)NCCCCCCCCCCC(=O)O)NC(=O)[C@H](CCC(N)=O)NC(=O)[C@H](C(C)C)NC(=O)[C@H](CC3CCCCC3)NC(=O)[C@H](CCN)NC(=O)[C@@H](CC(C)C)NC(=O)[C@H](CCCN)NC(=O)[C@H](Cc3ccc(O)cc3)NC(=O)[C@H](Cc3ccc(-c4ccccc4)cc3)NC(=O)[C@H](CC(C)C)NC2=O)c1 [Compound 3380] ({CH2CO}-RY(Carboxymethyl)D[Phe(3-Me)]L[Bip]Y[Orn][dL][Dab][Cha]VQC[Dab][Aun]-OH; thioether N-14)
21.7	Cc1cccc(C[C@@H]2NC(=O)[C@H](CC(=O)O)NC(=O)[C@H](Cc3ccc(OCC(=O)O)cc3)NC(=O)[C@H](CCN)NC(=O)CSC[C@@H](C(=O)N[C@@H](CCN)C(=O)NCCOCCOCC(=O)NCCOCCOCC(=O)NCCCCCCCCCCCCCCC(=O)O)NC(=O)[C@H](CO)NC(=O)[C@H](C(C)(C)O)NC(=O)[C@H](CC3CCCCC3)NC(=O)[C@H](CCN)NC(=O)[C@@H](CC(C)C)NC(=O)[C@H](CCCN)NC(=O)[C@H](Cc3ccc(OCC(=O)O)cc3)NC(=O)[C@H](Cc3ccc(-c4ccccc4)cc3)NC(=O)[C@H](Cc3ccc(OCC(=O)O)cc3)NC2=O)c1 [Compound 3815] ({CH2CO}-[Dab]Y(Carboxymethyl)D[Phe(3-Me)]Y(Carboxymethyl)[Bip]Y(Carboxymethyl)[Orn][dL][Dab][Cha][Val(3-OH)]SC[Dab][AEEA][AEEA]-{NH(CH2)14COOH}; thioether N-14)
10	CCCC[C@H]1NC(=O)[C@H](CCCN)NC(=O)[C@H](C(C)C)NC(=O)[C@H](Cc2ccc(-c3ccccc3)cc2)NC(=O)[C@H](C(C)C)NC(=O)[C@H](Cc2cccc(C)c2)NC(=O)[C@H](CC(=O)O)NC(=O)[C@H](Cc2ccc(OCC(=O)O)cc2)NC(=O)[C@H](CN)NC(=O)CSC[C@@H](C(=O)N[C@@H](CCCCN)C(=O)NCCCCCCCCCCC(=O)O)NC(=O)[C@H](CCCN)NC(=O)[C@H](C(C)C)NC(=O)[C@H](CC2CCCCC2)NC(=O)[C@H](CCN)NC1=O [Compound 2687] ({CH2CO}-[Dap]Y(Carboxymethyl)D[Phe(3-Me)]V[Bip]V[Orn][dNle][Dab][Cha]V[Orn]CK[Aun]-OH; thioether N-14)
4.8	Cc1cccc(C[C@@H]2NC(=O)[C@H](CC(=O)O)NC(=O)[C@H](Cc3ccc(OCC(=O)O)cc3)NC(=O)[C@H](CN)NC(=O)CSC[C@@H](C(=O)N[C@@H](CCN)C(=O)NCCOCCOCC(=O)NCCCCCCCCCCC(=O)O)NC(=O)[C@H](CCCN)NC(=O)[C@H](C(C)C)NC(=O)[C@H](CC3CCCCC3)NC(=O)[C@H](CCN)NC(=O)[C@@H](CC(C)C)NC(=O)[C@H](CCCN)NC(=O)[C@H](Cc3ccc(O)cc3)NC(=O)[C@H](Cc3ccc(-c4ccccc4)cc3)NC(=O)[C@H](Cc3ccc(N)cc3)NC2=O)c1 [Compound 2065] ({CH2CO}-[Dap]Y(Carboxymethyl)D[Phe(3-Me)][Phe(4-NH2)][Bip]Y[Orn][dL][Dab][Cha]V[Orn]C[Dab][AEEA][Aun]-OH; thioether N-14)
22.2	C#CC[C@H](NC(=O)COCCOCCNC(=O)[C@H](Cc1cnc[nH]1)NC(=O)[C@@H]1CSCC(=O)N[C@@H](Cc2ccncc2)C(=O)N[C@@H](Cc2ccc(OCC(=O)O)cc2)C(=O)N[C@@H](CC(=O)O)C(=O)N[C@@H](Cc2c[nH]c3ccccc23)C(=O)N[C@@H](C(C)C)C(=O)N[C@@H](Cc2ccc(-c3ccccc3)cc2)C(=O)N[C@@H]([C@@H](C)CC)C(=O)N[C@@H](CCCN)C(=O)N[C@H](CC(C)C)C(=O)N[C@@H](CCN)C(=O)N[C@@H](CC(C)C)C(=O)N[C@@H](C(C)C)C(=O)N[C@@H]([C@@H](C)O)C(=O)N1)C(=O)NCCCCCCCCCCC(=O)O [Compound 1210] ({CH2CO}-[4Pal]Y(Carboxymethyl)DWV[Bip]I[Orn][dL][Dab]LVTCH[AEEA][Pra][Aun]-OH; thioether N-14)

Further lines, the compound ahead of its results:

SMILES	IC50 [nM]
CC(C)C[C@H]1NC(=O)[C@H](CCCN)NC(=O)[C@H](C(C)C)NC(=O)[C@H](Cc2ccc(-c3ccccc3)cc2)NC(=O)[C@H](C(C)C)NC(=O)[C@H](Cc2c[nH]c3ccccc23)NC(=O)[C@H](CC(=O)O)NC(=O)[C@H](Cc2ccc(OCC(=O)O)cc2)NC(=O)[C@H](Cc2ccc(OCC(=O)O)cc2)NC(=O)CSC[C@@H](C(=O)NCCOCCOCC(=O)N[C@@H](CCN)C(=O)NCCCCCCCCCCC(=O)O)NC(=O)[C@H](CCCNC(=N)N)NC(=O)[C@H](C(C)C)NC(=O)[C@H](CC2CCCCC2)NC(=O)[C@H](CCN)NC1=O [Compound 2540] ({CH2CO}-Y(Carboxymethyl)Y(Carboxymethyl)DWV[Bip]V[Orn][dL][Dab][Cha]VRC[AEEA][Dab][Aun]-OH; thioether N-14)	7
Cc1cccc(C[C@@H]2NC(=O)[C@H](CC(=O)O)NC(=O)[C@H](Cc3ccc(OCC(=O)O)cc3)NC(=O)[C@H](CCN)NC(=O)CSC[C@@H](C(=O)N[C@@H](CCN)C(=O)NCCCCCCCCCCC(=O)O)NC(=O)[C@H](CO)NC(=O)[C@H](C(C)(C)O)NC(=O)[C@H](CC3CCCCC3)NC(=O)[C@H](Cc3cnc[nH]3)NC(=O)[C@@H](CC(C)C)NC(=O)[C@H](CCCN)NC(=O)[C@H](Cc3ccc(OCC(=O)O)cc3)NC(=O)[C@H](Cc3ccc(-c4ccccc4)cc3)NC(=O)[C@H](Cc3ccc(OCC(=O)O)cc3)NC2=O)c1 [Compound 3641] ({CH2CO}-[Dab]Y(Carboxymethyl)D[Phe(3-Me)]Y(Carboxymethyl)[Bip]Y(Carboxymethyl)[Orn][dL]H[Cha][Val(3-OH)]SC[Dab][Aun]-OH; thioether N-14)	7.4
Cc1cccc(C[C@@H]2NC(=O)[C@H](CC(=O)O)NC(=O)[C@H](Cc3ccncc3)NC(=O)[C@H](Cc3ccc(OCC(=O)O)cc3)NC(=O)CSC[C@@H](C(=O)NCCOCCOCC(=O)N[C@@H](CN)C(=O)NCCCCCCCCCCC(=O)O)NC(=O)[C@H]([C@@H](C)O)NC(=O)[C@H](C(C)C)NC(=O)[C@H](CC3CCCCC3)NC(=O)[C@H](CCN)NC(=O)[C@@H](CC(C)C)NC(=O)[C@H](CCCN)NC(=O)[C@H](C(C)C)NC(=O)[C@H](Cc3ccc(-c4ccccc4)cc3)NC(=O)[C@H](C(C)C)NC2=O)c1 [Compound 1169] ({CH2CO}-Y(Carboxymethyl)[4Pal]D[Phe(3-Me)]V[Bip]V[Orn][dL][Dab][Cha]VTC[AEEA][Dap][Aun]-OH; thioether N-14)	28.7
CC(C)C[C@H]1NC(=O)[C@H](CCCN)NC(=O)[C@H](CCCNC(N)=O)NC(=O)[C@H](Cc2ccc(-c3ccccc3)cc2)NC(=O)[C@H](Cc2ccc(O)cc2)NC(=O)[C@H](Cc2c[nH]c3ccccc23)NC(=O)[C@H](CC(=O)O)NC(=O)[C@H](Cc2ccc(OCC(=O)O)cc2)NC(=O)[C@H](CCCNC(=N)N)NC(=O)CSC[C@@H](C(=O)N[C@@H](CCN)C(=O)NCCCCCCCCCCC(=O)O)NC(=O)[C@H]([C@@H](C)O)NC(=O)[C@H](C(C)C)NC(=O)[C@H](CC2CCCCC2)NC(=O)[C@H](CCN)NC1=O [Compound 2834] ({CH2CO}-RY(Carboxymethyl)DWY[Bip][Cit][Orn][dL][Dab][Cha]VTC[Dab][Aun]-OH; thioether N-14)	20.2
CC(C)C[C@H]1NC(=O)[C@H](CCCN)NC(=O)[C@H](Cc2ccc(O)cc2)NC(=O)[C@H](Cc2ccc(-c3ccccc3)cc2)NC(=O)[C@H](Cc2ccc(O)cc2)NC(=O)[C@H](Cc2c[nH]c3ccccc23)NC(=O)[C@H](CC(=O)O)NC(=O)[C@H](Cc2ccc(OCC(=O)O)cc2)NC(=O)[C@H](Cc2ccc(OCC(=O)O)cc2)NC(=O)CSC[C@@H](C(=O)NCCOCCOCC(=O)NCCCCCCCCCCC(=O)O)NC(=O)[C@H](CCCN)NC(=O)[C@H](Cc2ccc(O)cc2)NC(=O)[C@H](CC2CCCCC2)NC(=O)[C@H](CCN)NC1=O [Compound 2521] ({CH2CO}-Y(Carboxymethyl)Y(Carboxymethyl)DWY[Bip]Y[Orn][dL][Dab][Cha]Y[Orn]C[AEEA][Aun]-OH; thioether N-14)	89.1
Cc1cccc(C[C@@H]2NC(=O)[C@H](CC(=O)O)NC(=O)[C@H](Cc3ccc(OCC(=O)O)cc3)NC(=O)[C@H](CN)NC(=O)CSC[C@@H](C(=O)N[C@@H](CCCCN)C(=O)NCCCCCCCCCCC(=O)O)NC(=O)[C@H](CN)NC(=O)[C@H](C(C)C)NC(=O)[C@H](CC3CCCCC3)NC(=O)[C@H](CCN)NC(=O)[C@@H](CC(C)C)NC(=O)[C@H](CCCN)NC(=O)[C@H](C(C)C)NC(=O)[C@H](Cc3ccc(-c4ccccc4)cc3)NC(=O)[C@H](C(C)C)NC2=O)c1 [Compound 2534] ({CH2CO}-[Dap]Y(Carboxymethyl)D[Phe(3-Me)]V[Bip]V[Orn][dL][Dab][Cha]V[Dap]CK[Aun]-OH; thioether N-14)	6.3
Cc1cccc(C[C@@H]2NC(=O)[C@H](CC(=O)O)NC(=O)[C@H](Cc3ccc(OCC(=O)O)cc3)NC(=O)[C@H](CCN)NC(=O)CSC[C@@H](C(=O)N[C@@H](CCN)C(=O)NCCOCCOCC(=O)NCCCCCCCCCCCCC(=O)O)NC(=O)[C@H](Cc3c[nH]cn3)NC(=O)[C@H](C(C)(C)O)NC(=O)[C@H](CC3CCCCC3)NC(=O)[C@H](CCN)NC(=O)[C@@H](CC(C)C)NC(=O)[C@H](CCCN)NC(=O)[C@H](Cc3ccc(OCC(=O)O)cc3)NC(=O)[C@H](Cc3ccc(-c4ccccc4)cc3)NC(=O)[C@H](Cc3ccc(OCC(=O)O)cc3)NC2=O)c1 [Compound 2871] ({CH2CO}-[Dab]Y(Carboxymethyl)D[Phe(3-Me)]Y(Carboxymethyl)[Bip]Y(Carboxymethyl)[Orn][dL][Dab][Cha][Val(3-OH)]HC[Dab][AEEA]-{NH(CH2)12COOH}; thioether N-14)	16.9
